Positions of bridges follow the written chain, without caps; N, C: chain ends. No end group written: not given here.
Tested on: Adult female mongrel dogs
Experiment: Partial agonist screen in indomethacin-treated dogs under water diuresis (urine volume and osmolality)
Assay type: in vivo
Experimental: The compounds are tested for partial agonist activity by the following procedures:
Adult female mongrel dogs are fasted for 18 hours prior to testing. The studies are conducted under steady state water diuresis initiated by a 5% body weight water load and a 3% dextrose infusion. At 0 hour, indomethacin, a cyclooxygenase inhibitor, is administered (2 mg/kg i.v. bolus and 3 mg/kg/hr i.v. infusion). Twenty minutes later, the test compound is administered i.v. Urine volume and osmolality are measured every 10 minutes for 4 hours.
The indomethacin dog model may predict the agonist activity of a compound in man.

ADH: the natural anti-diuretic hormone (ADH), vasopressin (CYFQNCPRG-NH2; disulfide 1-6; ends not checked; UniProt P01185 20-28, looked up)
antidiuretic activity (urine osmolality, volume) after treatment with indomethacin: potentiates the antidiuretic activity

— EP0346068A2, “D-Cys6 vasopressin antagonists” (SMITHKLINE BECKMAN CORPORATION, priority 1988, dated 1989)
